The text below walks through data of patent US20100099642A1, “TGF-BETA STIMULANT AND FURTHER AGENT TO REDUCE SIDE EFFECTS” (TCP Innovations Limited, priority 2007, published 2010).

For one experiment, the system named is tgfb1 mRNA. In words: tgfb1 mRNA level by quantitative PCR in human aortic vascular smooth muscle cells. It counts as cell-based. To be noted: 24 hrs, normalised to TBP, vs vehicle. Here is the method:
(1995) Cardiovasc. Res. 29:848-55). […] The cells were then incubated for either 24 hrs or 72 hrs depending on the experiment. All treatment conditions were established in triplicate. The level of mRNA for tgfb1, tgfb2 and tgfb3 were estimated by quantitative PCR. The media was removed and RNA was carefully prepared using the Ambion RNAqueous4PCR kit (Ambion#1914) in accordance with the manufacturer's instructions. The purity of the RNA and the quantity was assessed spectrophotometrically. […] This analysis results in both a gel-like image as well as electrophoretic data. Indications of RNA degradation are: (a) decreasing ratio of ribosomal bands (b) additional peaks bellow the ribosomal bands (c) Decrease in overall RNA signal (d) shift towards shorter fragments. All the mRNA samples used in the experiments presented here passed this RNA quality control step. Next, the RNA was converted to cDNA using the ABI High-Capacity cDNA Archive Kit, in accordance with manufacturer's instructions. The qPCR assay was then set up as follow: all cDNA samples were diluted to 180 μl total volume using Molecular grade water. Samples were vortexed to ensure thorough mixing. cDNA was aliquoted into ABI 384 well plates using a multi-channel pipette, 4.5 μl of sample into each well. Samples were assayed in triplicate (that is, nine determinations in total were made for each condition, being three separate assays on each of three replicate culture wells). The assay mix and Universal Master Mix were prepared and aliquoted across the 384 well plates 5.5 μl in each well, using a single channel pipette. The final composition of each reaction (10 μl) being: Primer/Probe assay mix (×20)=0.5 μl; Universal Master Mix=5 μl; cDNA=4.5 μl. The plates were then heat sealed using Abgene clear seal strong plastic heat seals, and then cycled and scanned using the […] under the following conditions: 95° C. for 10 minutes to activate the AmpliTaq GOLD, then 40 cycles of: 95° C. for 15 Sec (Denaturation), 60° C. for 60 […]). […] Quantitative PCR was performed using several primer/probe sets. […] We used both commercially available primer/probe sets (ABI Taqman pre-validated assays), using both available sets in the ABI database for tgfb1 and tgfb2, as well as the single available set for tgfb3. In addition, we used our own manual design probe/primer set for each of tgfb1, tgfb2 and tgfb3. For normalisation, we used TATA-binding protein (TBP) as the primary normalisation standard, with GAPDH as an alternative for confirmation, using ABI Taqman pre-validated probe/primer sets. […] Neither TBP nor GAPDH mRNA levels are affected by TGF-beta and are therefore equally suitable, however TBP was selected as the primary normalisation standard because the absolute level of mRNA in most cell types is similar to that of the TGF-beta isoforms, resulting in lower errors on calculating the ratio, and improving the power of the experiment. In all quantitative PCR experiments, several additional controls were included: firstly, a control for each sample is run with no reverse transcription to ensure the mRNA sample is not contaminated with genomic DNA (although the manual design probe/primer sets were all selected to cross an exon/exon boundary, ensuring no detectable amplicon is produced from genomic DNA templates). Secondly, a control reaction is run using serial 2-fold dilutions of a standard cDNA preparation (prepared from commercially available IMAGE clones). This control ensures that the results for the unknown samples are obtained in the linear range of the amplification process, and are therefore truly quantitative. Failure of either control led to the repeat of the entire experiment. Typically, the half maximal signal was obtained after 20-30 amplification cycles. […]

In another experiment the test system is tgfb3 mRNA. In words: tgfb3 mRNA level by quantitative PCR in human aortic vascular smooth muscle cells. To be noted: 24 hrs, normalised to TBP, vs vehicle. It counts as cell-based. The method, then:
(1995) Cardiovasc. Res. 29:848-55). […] The cells were then incubated for either 24 hrs or 72 hrs depending on the experiment. All treatment conditions were established in triplicate. The level of mRNA for tgfb1, tgfb2 and tgfb3 were estimated by quantitative PCR. The media was removed and RNA was carefully prepared using the Ambion RNAqueous4PCR kit (Ambion#1914) in accordance with the manufacturer's instructions. The purity of the RNA and the quantity was assessed spectrophotometrically. […] This analysis results in both a gel-like image as well as electrophoretic data. Indications of RNA degradation are: (a) decreasing ratio of ribosomal bands (b) additional peaks bellow the ribosomal bands (c) Decrease in overall RNA signal (d) shift towards shorter fragments. […] Next, the RNA was converted to cDNA using the ABI High-Capacity cDNA Archive Kit, in accordance with manufacturer's instructions. The qPCR assay was then set up as follow: all cDNA samples were diluted to 180 μl total volume using Molecular grade water. Samples were vortexed to ensure thorough mixing. cDNA was aliquoted into ABI 384 well plates using a multi-channel pipette, 4.5 μl of sample into each well. Samples were assayed in triplicate (that is, nine determinations in total were made for each condition, being three separate assays on each of three replicate culture wells). The assay mix and Universal Master Mix were prepared and aliquoted across the 384 well plates 5.5 μl in each well, using a single channel pipette. The final composition of each reaction (10 μl) being: Primer/Probe assay mix (×20)=0.5 μl; Universal Master Mix=5 μl; cDNA=4.5 μl. The plates were then heat sealed using Abgene clear seal strong plastic heat seals, and then cycled and scanned using the […] under the following conditions: 95° C. for 10 minutes to activate the AmpliTaq GOLD, then 40 cycles of: 95° C. for 15 Sec (Denaturation), 60° C. for 60 […]). […] Quantitative PCR was performed using several primer/probe sets. […] We used both commercially available primer/probe sets (ABI Taqman pre-validated assays), using both available sets in the ABI database for tgfb1 and tgfb2, as well as the single available set for tgfb3. In addition, we used our own manual design probe/primer set for each of tgfb1, tgfb2 and tgfb3. […] In all quantitative PCR experiments, several additional controls were included: firstly, a control for each sample is run with no reverse transcription to ensure the mRNA sample is not contaminated with genomic DNA (although the manual design probe/primer sets were all selected to cross an exon/exon boundary, ensuring no detectable amplicon is produced from genomic DNA templates). Secondly, a control reaction is run using serial 2-fold dilutions of a standard cDNA preparation (prepared from commercially available IMAGE clones). […] Failure of either control led to the repeat of the entire experiment.

The subject of experiment [1] is anti-carbohydrate antibodies. The experiment is described as follows: anti-carbohydrate antibody isotypes by direct ELISA in serum of men with coronary artery disease. In kind it is in vivo, human. The following applies: 3 months, Tamoxifen 20 mg once daily, aspirin 75 mg once daily, mean ± SD. Here is the method: (§1) Patients continued with all other medications (statins, ACE inhibitors, beta blockers, calcium channel blockers, diuretics etc), but no patients were taking warfarin or tirofiban.
The level of anti-carbohydrate antibodies was measured by direct ELISA as previously described (Mosedale et al (2006) J. Immunol. Meth. 309:182-91). […] After a final 3 washes in PBS/Tween and single wash in PBS, 200 μl of K-blue chromogenic substrate was added to each well.
as §1
The level of anti-carbohydrate antibodies was then measured by direct ELISA using the procedure given in Example 5
A general note: ELISA stands for enzyme-linked immunosorbent assay.

Structures are written as SMILES.

As for `CC/C(=C(\c1ccccc1)c1ccc(OCCN(C)C)cc1)c1ccccc1` [Tamoxifen], the “Level of tgfb1 mRNA, estimated by qPCR” value is recorded as 0.95 ± 0.16 fold-change in the experiment with tgfb1 mRNA (3.3 μM T); 1.27 ± 0.09 fold-change in the experiment on tgfb1 mRNA (10 μM T); 1.41 ± 0.08 fold-change with tgfb1 mRNA (33 μM T, listed as T); “approximately 1.4 fold-change” with tgfb1 mRNA (33 μM T, listed as TMX). The “Level of tgfb3 mRNA, estimated by qPCR” value is 0.92 ± 0.16 fold-change in the experiment with tgfb3 mRNA (3.3 μM T), 1.19 ± 0.21 fold-change in the experiment with tgfb3 mRNA (10 μM T) and 1.31 ± 0.11 fold-change with tgfb3 mRNA (33 μM T). Besides, the “IgG2 titre, change versus baseline” value in experiment [1] was “+176% ± 43%”. For the same compound, the “IgG2 Absorbance, change versus baseline” value in experiment [1] (neat serum) was “+0.61 ± 0.17”.
For `CC(=O)Oc1ccccc1C(=O)O` [Aspirin, acetylsalicylic acid], the “Level of tgfb1 mRNA, estimated by qPCR” value is listed as 1.01 ± 0.04 fold-change with tgfb1 mRNA (10 μM A), 0.93 ± 0.11 fold-change with tgfb1 mRNA (33 μM A) and 1.06 ± 0.08 fold-change with tgfb1 mRNA (100 μM A). Further, the “Level of tgfb3 mRNA, estimated by qPCR” value in the experiment with tgfb3 mRNA (10 μM A) is reported as 1.09 ± 0.08 fold-change; in the experiment with tgfb3 mRNA (33 μM A), 1.06 ± 0.13 fold-change; with tgfb3 mRNA (100 μM A) it was 0.94 ± 0.09 fold-change.
